Measurements as given in patent publication US20230013227A1, “ARYL-ANILINE AND HETEROARYL-ANILINE COMPOUNDS FOR TREATMENT OF BIRTHMARKS” (NFlection Therapeutics, Inc., priority 2018, published 2023).
pIC50: −log10 of the molar value. Where two headings read alike, the source gives them in different places. Values belong to the compound of their own block, whether it stands above or below them.

Key:
[1] = target: T1, MEK1 (Homo sapiens, UniProt Q02750); assay: MEK Inhibition Assay-1 (Example 2): 33P-ATP, P81 filter-binding kinase assay; conditions: read-out: Assay 1: biochemical MEK IC50
T1 construct: N-terminal His-tagged recombinant human full length protein; purchased Invitrogen PV3303; host or cells: insect cells
Description: The following procedure can be used to measure biochemical activity. MEK1 inhibitory activity of compounds were tested using the following procedure. […] Nat Biotechnoi 2011, 29(11), 1039-45.
• Reaction buffer: 20 mM Hepes (pH 7.5), 10 mM MgCl2, 1 mM EGTA, 0.02% Brij35, 0.02 mg/mL BSA, 0.1 mM Na3VO4, 2 mM DTT, 1% DMSO • Enzyme: MEK1, Invitrogen cat #PV3303 • N-terminal His-tagged recombinant human full length protein, expressed in insect cells. Activated in vitro by RAF1. MW=49.2 kDa, GenBank Accession No. NP_002746. • Substrate: 5 μM ERK2 (K52R), • Kinase-dead mutant, (GenBank Accession No. NM_0011949), aa2-358 with N-terminal His6 tag, MW=43.63 kDa, expressed in E. coli.
The substrate was prepared in freshly prepared Reaction Buffer. The kinase was delivered into the substrate solution and gently mixed. Test compounds were delivered in 100% DMSO into the kinase reaction mixture by Acoustic technology (Echo550; nanoliter range), and incubated for 20 min at room temperature. ^33P-ATP was delivered into the reaction mixture to initiate the reaction. The reaction mixture was incubated for 2 hours at room temperature. Kinase activity was detected by P81 filter-binding method.

[2] = tested on: A375 cells; assay: Cell-Based Assay-2 (Example 5): Cell Titer-Glo viability, A375 (BRAF) GI50; conditions: Homo sapiens, A-375; Table 8, compounds of formula (II); 72 hours
Description: (§1) Alternatively, the following procedure can be used to measure cell-based activity. Test compounds were dissolved in DMSO in 10 mM stock. Cell Titer-Glo® 2.0 Luminescent cell viability assay reagent was purchased from Promega (Madison, Wis.). A375 and HCT116 cell lines were purchased from American Type Culture Collection (Manassas, Va.). For A375 cells, cell culture media was DMEM+10% FBS. For HCT116 cells, cell culture media was McCoy's 5A+10% FBS. All media were supplemented with 100 μg/mL of penicillin, and 100 μg/mL of streptomycin. Cultures were maintained at 37° C. in a humidified atmosphere of 5% CO2 and 95% air.
(§2) Test compounds were diluted in DMSO solution with 10-dose and 3-fold dilutions in a source plate starting at 10 mM. […] Luminescence was recorded by Envision 2104 Multilabel Reader (PerkinElmer, Santa Clara, Calif.). The number of viable cells in culture was determined based on quantitation of the ATP present in each culture well. […] Luminescence was recorded by Envision 2104 Multilabel Reader (PerkinElmer, Santa Clara, Calif.). The number of viable cells in culture was determined based on quantitation of the ATP present in each culture well. […] All parameters in the equation were calculated by GraphPad Prism 4 program. […] Accordingly, GI50 is the value of 10^X, where X was calculated by the Curve Fitting Equation when Y=50 using Excel.

[3] = tested on: HCT116 cells; assay: Cell-Based Assay-2 (Example 5): Cell Titer-Glo viability, HCT116 (Kras) GI50; conditions: Homo sapiens, HCT-116; Table 8, compounds of formula (II); 72 hours; read-out: Assay 3: HCT116 (Kras) GI50
Description: as §1, §2

[4] = target: T2, MAP2K1 (MEK1) (Homo sapiens, UniProt Q02750); assay: MEK Inhibition Assay-2 (Example 3): Z'-LYTE biochemical assay; conditions: Table 6; procedure of Example 3; read-out: IC50 against MEK1
T2 construct: purchased ThermoFisher
Description: MEK1 inhibitory activity of compounds were tested using the following procedure (protocol available at thermofisher.com/content/dam/LifeTech/migration/files/drug-discovery/pdfs.par.60256.file.dat/20130430%20ssbk%20customer%20protocol%20and%20assay%20conditions.pdf). The Z′-LYTE biochemical assay (ThermoFisher) employs a fluorescence-based, coupled-enzyme format and is based on the differential sensitivity of phosphorylated and non-phosphorylated peptides to proteolytic cleavage.
Test compounds in 100% DMSO were screened in 1% DMSO (final) in the well. For 10 point titrations, 3-fold serial dilutions are conducted from the starting concentration of 30 μM.
After the 1 hour incubation, 5 μL of a 1:1024 dilution of Development Reagent A (available from Invitrogen, catalog no. PV3295) was added.
ATP solutions were diluted to a 4× working concentration in Kinase Buffer (50 mM HEPES pH 7.5, 0.01% BRIJ-35, 10 mM MgCl2, 1 mM EGTA). ATP Km apparent was previously determined using a Z′-LYTE assay. The Development Reagent was diluted in Development Buffer (available from Invitrogen, catalog no. P3127).
Assay Protocol: 2.5 μL of 4× test compound or 100 nL of 100× Test Compound plus 2.4 μL Kinase Buffer, 5 μL of the 2× Peptide/Kinase Mixture, 2.5 μL of 4×ATP Solution were added to the plates and placed on a shake plate for 30-seconds. The kinase reaction was allowed to proceed for 60-minute at room temperature, before 5 μL of Development Reagent Solution was added, and the mixture agitated for 30-seconds on a shake plate. The mixture was incubated for 60-minute at room temperature. Fluorescence was measured using a plate reader and the data were analyzed.
This control yielded 100% cleaved peptide in the Development Reaction. The 100% Phosphorylation Control, which consisted of a synthetically phosphorylated peptide of the same sequence as the peptide substrate, was designed to allow for the calculation of percent phosphorylation. This control yielded a very low percentage of cleaved peptide in the Development Reaction. The 0% Phosphorylation and 100% Phosphorylation Controls allow for the calculation of the percent phosphorylation achieved in a specific reaction well.
The minimum emission ratio in a screen was established by the 0% Inhibition Control, which contained active kinase. This control was designed to produce a 10-50% phosphorylated peptide in the Kinase Reaction. Cascade assays may produce up to 70% phosphorylated peptide.
A known inhibitor control standard curve, 10 point titration, was run for each individual kinase on the same plate as the kinase to ensure the kinase was inhibited within an expected IC50 range previously determined.
The following controls are prepared for each concentration of Test Compound assayed. […] The expected value for a non-interfering compound should be 100%. Any value outside of 90% to 110% was flagged. […] The expected value for a non-fluorescence compound should be 0%. Any value >20% was flagged.
The data in Table A was calculated. XLfit from IDBS was used. The dose response curve was curve fit to model number 205 (sigmoidal dose-response model).

[5] = tested on: p-ERK; assay: Human birthmark explant protocol (Example 1): p-ERK in nevus sebaceous explants; assay type: cell-based; conditions: topical gel
From the text: Study Objectives: The primary objective was to assess the efficacy of a topically-formulated compound described herein in suppressing p-ERK, a downstream biomarker of RAS/MAPK signaling in epidermal nevus and nevus sebaceous. The secondary objectives was to assess permeability (where the compound was applied topically) in birthmark explants treated with a compound described herein.
Sample Collection and Eligibility: Discarded human birthmark (epidermal nevus and nevus sebaceous) samples were obtained from the Stanford Surgery Clinic, using an approved human subjects protocol (Stanford IRB #18325). Specimens were identified under the direction of the Principal Investigator and placed in cell proliferation media (DMEM/F12 containing penicillin/streptomycin (0.1%); fungizone (40 μg/mL); B27 (without vitamin A).
Samples were primary, untreated birthmarks of at least 6 mm in size; samples were excised by a shave, punch biopsy or elliptical excision. Specimens were identified under the direction of the Principal Investigator. Specimens were chopped into 2 mm fragments and placed in 24-well plates containing cell proliferation media (DMEM/F12 containing penicillin/streptomycin (0.1%); fungizone (40 μg/mL); B27 (without vitamin A) and submerged in media with drug. For topical gel application, samples were placed in 96 well plates with epidermal surface exposed to air.
For the data provided in FIGS. 3 and 4, a gel topical gel formulation of Trametinib, Compound No. 2.003, Compound No. 4.029, or the gel topical formulation of vehicle only were topically applied to the surface of a birthmark explant at 4 hours for analysis. The gel formulation was 1% hydroxypropyl cellulose in DMSO/PEG 400 1:1 (v/v) and the tested compound was 1% by weight in the gel formulation. Samples were harvested at 4 hours for analysis. Harvested tissue was bisected and with half snap frozen and half fixed in 10% formalin and paraffin embedded for further analysis.
For the data provided in FIG. 5, a gelled topical gel formulation of Compound 2.003 or the gel topical formulation of vehicle only were topically applied to the surface of a birthmark explant at 4 hours for analysis. The gel formulation was 1.5% hydroxypropyl cellulose in the base formulation and the tested compound was 0.01% by weight of the base formulation. The Compositions of the base formulation are listed below. Samples were harvested at 4 hours for analysis. Harvested tissue was bisected and with half snap frozen and half fixed in 10% formalin and paraffin embedded for further analysis.
For the data provided in FIG. 6, three gelled topical gel formulations of Compound 2.003 at different concentrations or the gel topical formulation of vehicle only were topically applied to the surface of a birthmark explant at 4 hours for analysis. […]

[6] = systemic exposure, background statement; cited from earlier work
[7] = FIGS. 3 and 4, 1% by weight compound, 1% hydroxypropyl cellulose in DMSO/PEG 400 1:1, 4 hours

T1 sequence (Q02750 whole entry): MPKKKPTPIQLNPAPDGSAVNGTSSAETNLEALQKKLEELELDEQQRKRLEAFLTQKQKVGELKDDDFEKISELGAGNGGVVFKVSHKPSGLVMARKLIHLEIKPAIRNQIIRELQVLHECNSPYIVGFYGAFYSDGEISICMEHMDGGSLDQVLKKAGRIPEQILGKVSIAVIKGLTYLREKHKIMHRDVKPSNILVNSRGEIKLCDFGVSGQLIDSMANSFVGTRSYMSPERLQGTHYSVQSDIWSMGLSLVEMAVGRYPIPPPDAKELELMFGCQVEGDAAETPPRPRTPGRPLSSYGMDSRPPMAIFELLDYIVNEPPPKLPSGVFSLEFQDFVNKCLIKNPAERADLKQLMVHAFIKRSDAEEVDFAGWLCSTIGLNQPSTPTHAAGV
T2 sequence (Q02750 whole entry): as above

pIC50 ([1]; Table 8, compounds of formula (II), tested by Example 2): 6.43
GI50 [2]: 81 nM
GI50 [3]: 448 nM
SMILES: Cn1c(Nc2ccc(I)cc2F)c(C(=O)NOC[C@@H](O)CO)c2cccnc21 [Compound 2.006]

pIC50 ([1]; Table 10, compounds of formula (IV), Example 2): ≥ 6.30
pIC50 [4]: ≥ 6.82
SMILES: O=C1CCCc2c1sc(Nc1ccc(I)cc1F)c2C(=O)NOCCO [Compound 4.029]
suppression of p-ERK in human nevus sebaceous explants [5, 7]: suppression of p-ERK

SMILES: O=C(NOC[C@H](O)CO)c1ccc(F)c(F)c1Nc1ccc(I)cc1F [PD0325901]
side effects of a clinically-tested MEK inhibitor [6]: neurological side effects associated with ataxia, confusion, and syncope

SMILES: Cn1c(Nc2ccc(I)cc2F)c(C(=O)NOCCO)c2cccnc21 [Compound 2.003]
suppression of p-ERK in human nevus sebaceous explants ([5]; FIG. 5, 0.01% by weight compound, 1.5% hydroxypropyl cellulose in base formulation, 4 hours): suppression of p-ERK
dose response in suppression of p-ERK in human nevus sebaceous explants ([5]; FIG. 6, 0.01%, 0.15% or 1.00% by weight compound, 4 hours): dose response
suppression of p-ERK in human nevus sebaceous explants [5, 7]: suppression of p-ERK
